Experimental data taken from patent US20050256184A1, “1,2,4-Trioxanes and 1,2,4-trioxepanes” (priority 2004, published 2005).

Test system: K1 Plasmodium falciparum
Experiment: In vitro antimalarial activity, 48-h [3H]-hypoxanthine incorporation sensitivity assay
Assay type: cell-based
Settings: Erythrocyte, K1 strain (chloroquine resistant) of Plasmodium falciparum in human erythrocytes, triplicate, read-out: IC50
Protocol: Antimalarial activity. The K1 strain of Plasmodium falciparum was used in this study. This strain is known to be CQ resistant Parasites were maintained in continuous culture using the method of Jensen and Trager (Trager, W; Jenson, J. B. Human Malaria Parasites in Continuous Culture. Science, 1976, 193, 673-675). Cultures were grown in flasks containing human erythrocytes (2-5%) with parasitemia in the range of 1% to 10% suspended in RPMI 1640 medium supplemented with 25 mM HEPES and 32 mM NaHCO3, and 10% human serum (complete medium). Cultures were gassed with a mixture of 3% O2, 4% CO2 and 93% N2. Antimalarial activity was assessed with an adaption of the 48-h sensitivity assay of Desjardins et al. using [^3H]-hypoxanthine incorporation as an assessment of parasite growth (Desjardins, R. E.; Canfield, C. J.; Haynes, J. D.; Chulay, J. D. Quantitative Assessment of Antimalarial activity in vitro by Semi-automated Microdilution Technique. Antimicrob. Agents Chemother., 1979, 16, 710-718). Stock drug solutions were prepared in 100% dimethylsulphoxide (DMSO) and diluted to the appropriate concentration using complete medium. Assays were performed in sterile 96-well microtitre plates, each plate contained 200 μl of parasite culture (2% parasitemia, 0.5% haematocrit) with or without 10 μl drug dilutions. Each drug was tested in triplicate and parasite growth compared to control wells (which consituted 100% parasite growth). After 24-h incubation at 37° C., 0.5 μCi hypoxanthine was added to each well. Cultures were incubated for a further 24 h before they were harvested onto filter-mats, dried for 1 h at 55° C. and counted using a Wallac 1450 Microbeta Trilux Liquid scintillation and luminescence counter. IC50 values were calculated by interpolation of the probit transformation of the log dose-response curve.

**Q.** For `CC1(CSc2ccccc2)COC2(CCC2)OO1` (stereo not drawn) [4e, 7-Methyl-7-phenylsulfanylmethyl-5,6,9-trioxa-spiro[3.5]nonane], which IC50 is on record?
**A.** The IC50 was 0.314 µM.

**Q.** With `CC1(CSc2ccccc2)COC2(OO1)C1CC3CC(C1)CC2C3` (stereo not drawn) [4f, Adamantyl Trioxane] as the molecule, how does the IC50 read?
**A.** The IC50 was 0.285 µM.

**Q.** With `CC1(CSc2ccccc2)COC2(CCCCCCCCCCC2)OO1` (stereo not drawn) [4j, 3-Methyl-3-phenylsulfanylmethyl-1,2,5-trioxa-spiro[5.11]heptadecane] as the molecule, how does the IC50 read?
**A.** The IC50 was 0.135 µM.

**Q.** For `CC1(CS(=O)(=O)c2ccccc2)COC2(OO1)C1CC3CC(C1)CC2C3` (stereo not drawn) [8f, Adamantyl sulfone trioxane], which IC50 is on record?
**A.** Its IC50 is 0.329 µM.

**Q.** Which IC50 does the source give for `CC1(CS(=O)(=O)c2ccc(Cl)cc2)COC2(CCCCC2)OO1` (stereo not drawn) [8i, 3-(4-Chloro-benzenesulfonylmethyl)-3-methyl-1,2,5-trioxa-spiro[5.5]undecane] here?
**A.** The IC50 was 0.035 µM.

**Q.** Which IC50 does the source give for `C[C@@H]1CC[C@H]2[C@@H](C)C(=O)O[C@@H]3O[C@@]4(C)CC[C@@H]1[C@]32OO4` [Artemisinin, reference compound] here?
**A.** Its IC50 is 0.012 µM.

Same assay, conditions: Plasmodium falciparum, K1, Erythrocyte

**Q.** With `CCN(CC)CCCC(C)Nc1ccnc2cc(Cl)ccc12` (stereo not drawn) [Chloroquine, reference compound] as the molecule, how does the IC50 read?
**A.** The IC50 was 0.21 µM.

Test system: not given
Experiment: not given
Settings: not given

**Q.** For `CC1(CSc2ccccc2)COC2(CCCCC2)OO1` (stereo not drawn) [4c, 3-Methyl-3-phenylsulfanylmethyl-1,2,5-trioxa-spiro[5.5]undecane], which melting point is on record?
**A.** The melting point was 45 to 46 °C.

**Q.** For `CC1(CSc2ccc(Cl)cc2)COC2(CCCC2)OO1` (stereo not drawn) [4d, 8-(4-Chloro-phenylsulfanylmethyl)-8-methyl-6,7,10 trioxa-spiro[4.5]decane], which melting point is on record?
**A.** Its melting point is 69.8 to 70 °C.

**Q.** With `CC1(CSc2ccccc2)COC2(CCCCCCCCCCC2)OO1` (stereo not drawn) [4j, 3-Methyl-3-phenylsulfanylmethyl-1,2,5-trioxa-spiro[5.11]heptadecane] as the molecule, how does the melting point read?
**A.** Its melting point is 89 °C.

**Q.** With `CC1(CSc2ccc(Cl)cc2)COC2(CCCCCCCCCCC2)OO1` (stereo not drawn) [4k, 3-(4-Chloro-phenylsulfanylmethyl)-3-methyl-1,2,5-trioxa-spiro[5.11]heptadecane] as the molecule, how does the melting point read?
**A.** Its melting point is 93 to 94 °C.

**Q.** For `CC1(CS(=O)(=O)c2ccccc2)COC2(CCCCC2)OO1` (stereo not drawn) [8c, 3-Benzenesulfonylmethyl-3-methyl-1,2,5-trioxa-spiro[5.5]undecane], which melting point is on record?
**A.** The melting point was 88 to 89 °C.

**Q.** With `CC1(CS(=O)(=O)c2ccccc2)COC2(CCC2)OO1` (stereo not drawn) [8e, 7-Benzenesulfonylmethyl-7-methyl-5,6,9-trioxa-spiro[3.5]nonane] as the molecule, how does the melting point read?
**A.** The melting point was 96 to 97 °C.

**Q.** With `CC1(CS(=O)(=O)c2ccccc2)COC2(OO1)C1CC3CC(C1)CC2C3` (stereo not drawn) [8f, Adamantyl sulfone trioxane] as the molecule, how does the melting point read?
**A.** Its melting point is 126 to 127 °C.

**Q.** For `CC1(CS(=O)(=O)c2ccccc2)COC2(CCC(C(C)(C)C)CC2)OO1` (stereo not drawn) [8g, 3-Benzenesulfonylmethyl-9-tert-butyl-3-methyl-1,2,5-trioxa-spiro[5.5]undecane], which melting point is on record?
**A.** Its melting point is 154 °C.

**Q.** For `CC1(CS(=O)(=O)c2ccccc2)COC2(CCC(=O)CC2)OO1` (stereo not drawn) [8h, 3-Benzenesulfonylmethyl-3-methyl-1,2,5-trioxa-spiro[5.5]undecan-9-one], which melting point is on record?
**A.** The melting point was 96 °C.

**Q.** Which melting point does the source give for `CC1(CS(=O)(=O)c2ccc(Cl)cc2)COC2(CCCCC2)OO1` (stereo not drawn) [8i, 3-(4-Chloro-benzenesulfonylmethyl)-3-methyl-1,2,5-trioxa-spiro[5.5]undecane] here?
**A.** The melting point was 86 to 87 °C.

**Q.** Which melting point does the source give for `CC1(CS(=O)(=O)c2ccccc2)COC2(CCCCCCCCCCC2)OO1` (stereo not drawn) [8k, 3-Benzenesulfonylmethyl-3-methyl-1,2,5-trioxa-spiro[5.11]heptadecane] here?
**A.** Its melting point is 123 to 124 °C.
